Source: patent publication US20210015881A1 (priority 2016, published 2021)

How the values were obtained:
aconitic arrhythmia = details: for effect on baseline heart rate and contraction (intervals R-R, PQ, QT): i.v. at doses that provide antiarrhythmic effect in 50% of rats; for antiarrhythmic activity and range of antiarrhythmic action, comparison: active doses 5-10 minutes prior to i.v. aconitine
Procedure: The study was conducted in anesthetized white outbred rats. The objective of the experiment was to study the efficiency of intravenous administration of the studied substances and known antiarrhythmic agents in the model of aconitic arrhythmia in anesthetized rats.
The studied substances and medicinal products for comparison were administered in active doses 5-10 minutes prior to intravenous administration of aconitine.

[1] = test system: threshold of pain irritation; experiment: Infiltration anesthesia in rabbits, method of Bullbring-Vida; type: in vivo; details: 0.5% solution
Procedure: The ability of the medicinal product to cause infiltration anesthesia was studied in rabbits by the method of Bullbring-Vida (pain method).
(§1) The time of anesthesia onset, its depth and duration were determined. Activity of the studied substances at topical anesthesia was compared to dicaine; at infiltration anesthesia-to novocaine.

[2] = test system: cardiac arrhythmia caused by barium chloride; experiment: Cardiac arrhythmia caused by barium chloride; type: in vivo, rats
Procedure: The study was conducted in 60 white outbred rats. […] Out of 15 control animals, which received barium chloride at a dose of 20 mg/kg, […] of the rats died.
Rhythm disturbances were mostly of a ventricular type, in the form of ventricular bigeminy, trigeminy, group extrasystoles, transient ventricular standstill, flutter and ventricular fibrillation. In addition, various types of conduction disorders and increased ST segment above contours were observed.
Intravenous administration of the studied substances at doses of 0.05-0.1 mg/kg 10 min prior to the injection of barium chloride prevented the development of arrhythmias in 60-90% of rats. Antiarrhythmic effect of the studied substances combines with antitoxic effect against lethality from barium chloride.

corneal reflex = experiment: Terminal (topical) anesthesia of the rabbit eye, method of Rainier-Valet; type: in vivo, rabbits
Procedure: The local anesthetic effect of the studied substances was investigated in 10 rabbits. The effect on terminal anesthesia was investigated by the method of Rainier-Valet, by identifying the corneal reflex to mechanical irritation every 5-10 min after instillation of 2 drops of 0.1%-0.25%-0.5% solutions of the studied substances.
as §1

## CCOC(=O)Nc1ccc2c(c1)N(C(=O)CCN1CCOCC1)c1ccccc1S2 [Etmozin]
Aconitic arrhythmia
  effect on baseline heart rate and contraction (intervals R-R, PQ, QT): inhibition of the baseline heart rate and contraction
Aconitic arrhythmia; i.v.
  antiarrhythmic activity and range of antiarrhythmic action, comparison: most efficient among the reference antiarrhythmic agents

## CCN(CC)CCOC(=O)c1ccc(N)cc1 [novocaine]
[1]
  duration of local anesthetic effect: about 90 min

## CCN(CC)CC(=O)Nc1c(C)cccc1C [Lidocaine]
Aconitic arrhythmia; i.v., active doses prior to aconitine
  duration of effect, comparison: shortest effect

## C=C[C@H]1C[N@@]2CC[C@H]1C[C@@H]2[C@@H](O)c1ccnc2ccc(OC)cc12 [Quinidine]
Aconitic arrhythmia
  effect on baseline heart rate and contraction (intervals R-R, PQ, QT): inhibition of the baseline heart rate and contraction
[2]; 5 mg/kg and 10 mg/kg
  antiarrhythmic and antitoxic effect compared with substances 1-9 at 0.05 mg/kg and 0.1 mg/kg: approximately similar

## CCCCNc1ccc(C(=O)OCCN(C)C)cc1 [dicaine]
Corneal reflex; 0.1%
  average duration of terminal anesthesia of the rabbit eye: 37 min
Corneal reflex; 0.5%
  average duration of terminal anesthesia of the rabbit eye: 52 min
Corneal reflex; concentrations of 0.1% and 0.5%
  onset of terminal anesthesia of the rabbit eye: 1 to 2 min

## COc1ccc(CCN(C)CCCC(C#N)(c2ccc(OC)c(OC)c2)C(C)C)cc1OC (centres unmarked) [Verapamil]
Aconitic arrhythmia; i.v.
  antiarrhythmic activity and range of antiarrhythmic action, comparison: least effective

## CCN(CC)CCNC(=O)c1ccc(N)cc1 [Procainamide]
[2]; barium chloride model of ventricular type arrhythmia
  antiarrhythmic and antitoxic activity, comparison: weakest antiarrhythmic and antitoxic activity
